This note sets out measurements from PMC5584254, “Identification of novel small molecule Beclin 1 mimetics activating autophagy” (Oncotarget, 2017).

Where only a bound is given, the exact number is not on record here.

For experiment [1], the target named is T1, Bcl-xL-Beclin 1 20-mer complex (Homo sapiens, UniProt Q07817).
T1 construct: made in house
Briefly: FP competitive binding assay (disruption of Bcl-xL-20-mer complex). The conditions noted are these: 50 nM 20-mer, 2 μM Bcl-xL. How it is done:
Figure 1 FP-based HTS for Beclin 1 mimetics (A) Schematic presentation of the Beclin 1 protein and sequences of five synthetic peptides modified from Beclin 1 BH3 peptide. Diagram of human Beclin 1 protein with different domains is shown in the bottom. BH3 domain is necessary and sufficient for interaction with Bcl-2/Bcl-xL. Amino acids in red are the critical residues for the binding. (B) Five fluorescein-labeled Beclin 1 BH3 peptides were tested for their binding ability to Bcl-xL protein in FP assay. Fluorescein-labeled Bak BH3 peptide was used as a positive control. Bcl-xL protein was titrated to a solution of 50 nM peptides. (C) Competitive binding assay with positive controls, ABT-263 and (–)-gossypol ((–)G). […] (D–E) HTS was performed with ~50000 compounds from Prestwick, Microsource, CMLD and Chembridge libraries. The four libraries were divided into two groups and screened separately. Compounds activity (percent of inhibition) of first screen (D) and second screen (E) were shown with Z′ value indicated on top. Plate median + 3SD was used as a threshold to determine the initial hits.
Bcl-xL protein was immobilized on the sensor chip with 10000 RU.
All N′-fluorescein-labeled peptides were purchased from Kansas State University (Manhattan, KS). […] 16mer Bak ([…]) sequence was from published literature. Bcl-xL protein (25 kDa, > 90% pure based on SDS–PAGE) was expressed and purified in Protein Product Group, University of Kansas. FP assays were carried out as described in our previous publication with some modified. […] Then, fluorescein-labeled peptide was added to each well with a final concentration of 50 nM and incubated at room temperature for 30 min. Anisotropy measurements were taken at room temperature using a BioTek Synergy H4 plate reader (Biotek, Winooski, VT) following the protocol recommended by the manufacture. The Kd was estimated by nonlinear regression to a one-site binding model using GraphPad Prism 5.0 (GraphPad, San Diego, CA). […] Compound solvent DMSO only was used as a negative control in the competition assay. After 2 h incubation, the plate was read and polarization was calculated.

Experiment [2] has as its system DU145. The experiment is described as follows: MTT-based cytotoxicity assay, DU145. The note with it: Homo sapiens, DU-145, averages of at least two independent experiments, read-out: Cytotoxicity in different cell lines (IC50, μM) DU145. From the text:
(§1) Human prostate cancer cell lines PC-3 and DU145, were purchased from American Type Culture Collection (ATCC) and used within 50 passages. PC-3a is a derivative of PC-3 that is resistant to chemo/radiotherapy, established in our lab and confirmed by genotyping. All cells were maintained in DMEM (Mediatech, Manassas, VA) supplemented with 10% fetal bovine serum (FBS) (Sigma-Aldrich, St. Louis, MO), 1% Glutamine (Mediatech, Manassas, VA), 1% antibiotics (Mediatech, Manassas, VA). Compounds for primary FP-based HTS screening were from Prestwick, Microsource, University of Kansas Center of Excellence in Chemical Methodologies & Library Development (KU CMLD, Lawrence, KS), and Chembridge libraries. Compounds for MTT and SPR validation experiment were purchased from Microsource (Gaylordsville, CT) and Hit2lead Company (San Diego, CA). Acridine analogues, compound 1–6, were from our in-house library (provided by Specialized Chemistry Center, University of Kansas, Lawrence, KS); compound 7–17 were synthesized as described in supplementary information. (–)-Gossypol was isolated from racemic gossypol as we previously described. ABT-263 and DMSO were purchased from Sigma. MTT-based cytotoxicity assay and western blot analysis was carried out according to our previous publications. The primary antibodies used were LC3B (#2775) (Cell signaling Technology, Danvers, MA) and β-actin (A5441) (Sigma).
For orientation: Tetrazolium dyes change colour on reduction, which living cells bring about.

Experiment [3] relates to PC-3a. The experiment is described as follows: MTT-based cytotoxicity assay, PC-3a. The conditions noted are these: Homo sapiens, averages of at least two independent experiments, read-out: Cytotoxicity in different cell lines (IC50, μM) PC-3a.
Description: as §1

Experiment [4] deals with PC-3. Briefly: MTT-based cytotoxicity assay, PC-3. The conditions noted are these: Homo sapiens, averages of at least two independent experiments, read-out: Cytotoxicity in different cell lines (IC50, μM) PC-3.
Description: as §1

The target of experiment [5] is T2, Bcl-xL protein (Homo sapiens, UniProt Q07817).
T2 construct: made in house
T2 sequence (Q07817 whole entry): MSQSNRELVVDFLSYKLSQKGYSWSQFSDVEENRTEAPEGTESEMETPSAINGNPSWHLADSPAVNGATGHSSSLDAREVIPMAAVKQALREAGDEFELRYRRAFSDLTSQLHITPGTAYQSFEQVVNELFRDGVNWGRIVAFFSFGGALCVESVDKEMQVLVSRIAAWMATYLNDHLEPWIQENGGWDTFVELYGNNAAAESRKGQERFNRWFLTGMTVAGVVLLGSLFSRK
Briefly: Surface plasmon resonance assay, immobilized Bcl-xL. It is filed as binding. The note with it: SPR; 10 μM compound; Bcl-xL immobilized 10000 RU. The procedure: The surface plasmon resonance experiments were performed using a Biacore 3000 (GE Healthcare Pittsburgh, PA) equipped with a research-grade CM5 sensor chip. The ligand (Bcl-xL) was immobilized using amine-coupling chemistry. The surfaces of flow cells on a Biacore sensor chip CM5 were activated for 7 min with a 1:1 mixture of 0.1 M NHS (N-hydroxysuccinimide) and 0.1 M EDC (3-(N,N-dimethylamino) propyl-N-ethylcarbodiimide) at a flow rate of 5 μL/min. The ligand (Bcl-xL) at a concentration of 180 μg/mL in 10 mM sodium acetate, pH 4.5, was immobilized at a density of about 10000 RU on flow cell 2; the ligand (SUMO-Bcl-2, 37.5 kDa, > 90% pure based on SDS–PAGE) at a concentration of 44 μg/ml in 10 mM sodium acetate, pH 4.5, was immobilized at a density of 10000 RU on flow cell 3; flow cell 1 was left blank to serve as a reference surface. All the surfaces were blocked with a 7 min injection of 1 M ethanolamine, pH 8.0.
For kinetic analysis, a concentration series of analyte were injected over the flow cells at a flow rate of 60 μL/min at 20 °C. The complex was allowed to associate and dissociate for 120 and 180 s, respectively. For binding studies, analyte (or test compound) was injected over the two flow cells in duplicate at indicated concentration at a flow rate of 60 μL/min at 20 °C. The running buffer consisted of 20 mM HEPES, 150 mM NaCl, 3 mM EDTA, 1 mM DTT, 0.05% P20, 5% DMSO, pH 7.4. The complex was allowed to associate and dissociate for 120 and 180 s, respectively. The buffer samples containing a range of 4–6% DMSO were injected at the beginning, used for solvent correction. The surfaces were regenerated between binding cycles with a 5 s injection of 5 mM NaOH for compounds and 10 mM Glycine pH 2.5 for 20-mer.
All measurements were taken with flow cell 1 as a reference (i.e. sensorgram depicts “2–1 correction”) and corrected for DMSO bulk differences via the calibration curves. To obtain kinetic rate constants (Ka and Kd), corrected response data were fit to a simple 1:1 interaction model using local fit (includes correction for mass transport limitations) available within Biaevaluation 3.1 software or Scrubber2 software. The equilibrium dissociation constant (KD) was determined by Kd/Ka.
(In general: SPR reads the build-up and loss of mass on a sensor chip optically.)

For experiment [6], the system named is DU145, PC-3a and PC-3 prostate cancer cell lines. The experiment is described as follows: MTT-based cytotoxicity assay, all three prostate cancer cell lines. The conditions noted are these: for IC50: Homo sapiens, DU-145, MTT, DU145, PC-3a and PC-3, read-out: cytotoxicity IC50, stated for all three cell lines together. Further details: species or system Human.
Description: We also tested the cytotoxicity of the 17 compounds in human prostate cancer cell lines by MTT assay (Table 1).
as §1, with “PC-3a is a derivative of PC-3 that is resistant to chemo/radiotherapy, established in our lab and confirmed by genotyping.” left out, “Acridine analogues, compound 1–6, were from our in-house library (provided by Specialized Chemistry Center, University of Kansas, Lawrence, KS); compound 7–17 were synthesized as described in supplementary information.” left out

T1 sequence (Q07817 whole entry, one chain of several): as the sequence (Q07817 whole entry) above

Consider `CC(=O)O.Cc1cc2c(C(C)C)c(O)c(O)c(C=O)c2c(O)c1-c1c(C)cc2c(C(C)C)c(O)c(O)c(C=O)c2c1O` [(–)-gossypol], for which the “competitive displacement of fluorescent 20-mer” value in experiment [1] is reported as “capable of freeing out fluorescent 20mer”.

Consider `CC1(C)CCC(c2ccc(Cl)cc2)=C(CN2CCN(c3ccc(C(=O)NS(=O)(=O)c4ccc(N[C@H](CCN5CCOCC5)CSc5ccccc5)c(S(=O)(=O)C(F)(F)F)c4)cc3)CC2)C1` [ABT-263], for which the “competitive displacement of fluorescent 20-mer” value in experiment [1] was “capable of freeing out fluorescent 20mer”.

In the case of `COc1ccc(CCN(C)c2c3ccccc3nc3ccccc23)cc1OC` [Compound 1], the values for the IC50 in experiment [2], in experiment [3] and in experiment [4] were 8.15 ± 0.59 µM, 5.81 ± 1.16 µM and 6.04 ± 0.68 µM, respectively. The “binding level to Bcl-xL protein in SPR” value in experiment [5] is on record as “almost no binding”.

Consider `CN(CCc1ccc(O)c(O)c1)c1c2ccccc2nc2ccccc12` [Compound 2], for which the concentration for half-maximal inhibition (IC50) in experiment [2] was determined as 47 ± 7.39 µM; in experiment [3] it was 29.2 ± 11.2 µM; in experiment [4], 38.7 ± 5.46 µM.

As for `COc1ccc(CCNc2ncnc3ccccc23)cc1OC` [Compound 3], the IC50 in experiment [2] is > 100 µM; in experiment [3] it was 82.7 ± 7.99 µM; in experiment [6], > 100 µM. The “binding level to Bcl-xL protein in SPR” value in experiment [5] was “almost no binding”.

Take `COc1cc(Br)c(CCNc2c3ccccc3nc3ccccc23)cc1OC` [Compound 4]: the results for the IC50 in experiment [2], in experiment [3] and in experiment [4] were 6.33 ± 0.32 µM, 4.37 ± 0.68 µM and 4.43 ± 0.46 µM, respectively.

For `Nc1c2ccccc2nc2ccccc12` [Compound 5], the IC50 in experiment [2] was 2.78 ± 0.79 µM; in experiment [3], 0.74 ± 0.45 µM; in experiment [4], 0.79 ± 0.07 µM; in experiment [6] it was 0.5 to 5 µM. The “fold difference in IC50 value, PC-3 and PC-3a versus DU145” value in experiment [6] (higher cytotoxicity in PC-3 and PC-3a than in DU145) is 3–5 fold.

For `O=C(CSc1nc(=O)c2ccccc2[nH]1)c1ccc(O)c(O)c1` [Compound 6], the IC50 in experiment [2], in experiment [3], in experiment [4] and in experiment [6] was > 100 µM throughout. Besides, in experiment [5], the “binding level to Bcl-xL protein in SPR” value is “almost no binding”.

`COc1ccc2nc3cc(Cl)ccc3c(NCCOCCO)c2c1` [Compound 8]: the figures for the IC50 in experiment [2], in experiment [3] and in experiment [4] were 3.68 ± 0.55 µM, 1.64 ± 0.78 µM and 1.42 ± 0.73 µM, respectively.

As to `COc1ccc2nc3cc(Cl)ccc3c(Oc3ccccc3)c2c1` [Compound 10], the half-inhibitory concentration (IC50) was 77.7 ± 24.2 µM in experiment [2], 36.1 ± 8.23 µM in experiment [3] and 14.1 ± 0.71 µM in experiment [4].

As to `COc1ccc2nc3ccccc3c(-c3ccc([N+](=O)[O-])cc3)c2c1` [Compound 11], the concentration for half-maximal inhibition (IC50) in experiment [2], in experiment [3], in experiment [4] and in experiment [6] was > 100 µM each time. Further, the “binding level to Bcl-xL protein in SPR” value in experiment [5] is on record as “almost no binding”.

Turning to `COc1ccc2nc3ccccc3c(-c3ccncc3)c2c1` [Compound 12], the figures for the IC50 in experiment [2], in experiment [3] and in experiment [4] were 45.4 ± 8.18 µM, 16.4 ± 2.56 µM and 21.6 ± 2.24 µM, respectively.

Regarding `COc1ccc2nc3cc(Cl)ccc3c(-c3ccncc3)c2c1` [Compound 13], the IC50 in experiment [2] is 57 ± 14.5 µM; in experiment [3], 53.9 ± 3.66 µM; in experiment [4], 52.4 ± 10.4 µM.

Turning to `COc1ccc2nc3cc(Cl)ccc3c(-c3ccc(F)cc3)c2c1` [Compound 15], the IC50 in experiment [2], in experiment [3], in experiment [4] and in experiment [6] was > 100 µM throughout. In addition, in experiment [5], the “binding level to Bcl-xL protein in SPR” value is “almost no binding”.

For the compound `COc1ccc2nc3cc(Cl)ccc3c(-c3ccc(NC(=O)OC(C)(C)C)cc3)c2c1` [Compound 16], the values for the IC50 in experiment [2], in experiment [3] and in experiment [4] were 36 ± 14 µM, 38.7 ± 20.4 µM and 45 ± 20.2 µM, respectively.

With `COc1ccc2nc3cc(Cl)ccc3c(-c3ccc(N)cc3)c2c1` [Compound 17], the IC50 is 53 ± 14.7 µM in experiment [2], > 100 µM in experiment [3] and 29.5 ± 28.4 µM in experiment [4].

As a reminder, the IC50 is the midpoint of a concentration-inhibition curve.
